One data set relates to 185 other kinases. Particulars: at 1uM; ref Goodfellow et al., 2013; cited from earlier work.
The conditions of data set [1]: over 4 weeks in subjects with PD; ref Parkinson Study Group, 2007; cited from earlier work.
For data set [2] the following is noted: in mice; ref Parkinson Study Group, 2007; cited from earlier work.
A further data set has as its system striatal DA. The data set is described as follows: HPLC of striatal neurochemistry in MPTP model. The format is in vivo, C57BL/6J mice. Particulars: MPTP 20 mg/kg s.c. 5 days, vs neurotoxin vehicle or drug vehicle.
A further data set deals with striatal TH. The data set is described as follows: Western blot of striatal TH in MPTP model. The format is in vivo, C57BL/6J mice. To be noted: 20 mg/kg MPTP for 5 days, vs neurotoxin vehicle or drug vehicle. A general note: A western blot detects proteins with antibodies after separation by electrophoresis.
A further data set relates to TH+ neurons in the SNpc. It counts as in vivo, C57BL/6J mice. To be noted: MPTP-treated mice vs neurotoxin vehicle or drug vehicle controls.
Another data set relates to CD68 expression. To be noted: mouse EAE hippocampus; ref Bellizzi et al., 2018; cited from earlier work.
The next data set deals with p54-JNK. Particulars: treatment in mice; ref Dong et al., 2016; cited from earlier work.
For another data set, the system named is p38. Particulars: treatment in mice; ref Dong et al., 2016; cited from earlier work.
A further data set relates to p46-JNK. Particulars: treatment in mice; ref Dong et al., 2016; cited from earlier work.

SMILES strings stand for the structures. Where only a bound is given, the exact number is not on record here.

`CCSCc1ccc2c(c1)c1c3c(c4c5cc(CSCC)ccc5n5c4c1n2[C@H]1C[C@](O)(C(=O)OC)[C@]5(C)O1)CNC3=O` [CEP-1347]: the “number of other kinases with 50% inhibition” value in the data set with 185 other kinases was 185. The safety and tolerability result in data set [1] was “safe and well tolerated”. Also, the brain/plasma ratio in data set [2] is reported as below 0.2.

With `CN1CC=C(c2ccccc2)CC1` [MPTP, 1-methyl-4-phenyl-1,2,3,6-tetrahydropyridine], the “reduction in striatal dopamine” value with striatal DA is given as “approximately 50%”. Further, the “reduction in striatal TH expression” value with striatal TH is “approximately 50%”. Moreover, the “reduction in the number of TH+ neurons in the SNpc” value in the data set with TH+ neurons in the SNpc is reported as “approximately 84%”.

Take `CN1CCN(Cc2ccc(-c3cnc4[nH]cc(-c5ccc6[nH]ccc6c5)c4c3)cc2)CC1` [URMC-099]: the “effect on CD68 expression” value with CD68 expression was “prevented increased CD68 expression”. The “decrease in phosphorylation of p54-JNK” value in the data set on p54-JNK was 23.7%. Besides, in the data set on p38, the “decrease in phosphorylation of p38” value was 21.5%. The “decrease in phosphorylation of p46-JNK” value with p46-JNK is reported as 17.3%.
